Literature values, collected in patent publication US8481483B2, “Cyclosporin analogues” (priority 2009, dated 2013).

Assays:
[1] = system: hepatitis C virus replication; details: Antiviral Research 65(3):A41 (2005)
[2] = target: cyclophilin A (Homo sapiens, UniProt P62937)
Sequence of cyclophilin A (P62937 whole entry, species assumed): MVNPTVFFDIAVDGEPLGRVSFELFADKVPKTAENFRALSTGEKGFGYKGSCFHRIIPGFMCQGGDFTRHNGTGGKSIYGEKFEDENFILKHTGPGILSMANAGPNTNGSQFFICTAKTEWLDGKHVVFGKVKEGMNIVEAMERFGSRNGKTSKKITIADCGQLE

C/C=C/C[C@@H](C)[C@@H](O)[C@H]1C(=O)N[C@@H](CC)C(=O)N(C)[C@H](C)C(=O)N(CC)[C@@H](C(C)C)C(=O)N[C@@H](C(C)C)C(=O)N(C)[C@@H](CC(C)C)C(=O)N[C@@H](C)C(=O)N[C@H](C)C(=O)N(C)[C@@H](CC(C)C)C(=O)N(C)[C@@H](CC(C)C)C(=O)N(C)[C@@H](C(C)C)C(=O)N1C [DEBIO-025]
inhibition of hepatitis C virus replication [1]: potent and selective inhibition
binding affinity for cyclophilin A [2]: potent binding affinity
